From PubChem BioAssay (NCI)
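Values below derive from 48-hour exposures of cells grown in 96-well plates, with endpoints linearly interpolated between the two concentrations bracketing the appropriate inhibition level. GI50 = concentration required for 50% inhibition of growth. TGI is the concentration that stops growth completely.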

system: ACHN renal; experiment: inhibition of tumour cell growth, NCI panel, 48 h

Going from `COc1ccc2nc3cc(Cl)ccc3c(NCCNCC(C)O)c2c1` (stereo unspecified) to `CCCOc1cc2ccccc2cc1C(=O)Nc1nc(N)c2c(ccc3nccc32)[nH]1`, the GI50 falls from 1.43 µM to 0.0641 µM (22-fold).

Compared with `CCn1c(-c2nonc2N)nc2c(C#CC(C)(C)O)nc(OC[C@@H](N)c3ccccc3)cc21`, `COC[C@H]1Cn2cc(-c3nc(Nc4ccnn4C)ncc3C)nc2C(=O)N1Cc1ccc(F)c(F)c1` is 3-fold higher in GI50: 4.17 µM for the first, 12.6 µM for the second.

Compared with `Cn1ccc2c3c(Oc4ccc(NC(N)=O)cc4)ccnc3ccc21`, `Nc1n[nH]c2cc(F)c([C@@H]3Nc4ccc5[nH]ncc5c4[C@H]4C5CCC(C5)[C@@H]34)cc12` (stereo partly specified) is lower in GI50: over 100 µM for the first, 0.231 µM for the second.

Going from `COc1ccc2nc3cc(Cl)ccc3c(NCCNCC(C)O)c2c1` (stereo unspecified) to `CCCOc1cc2ccccc2cc1C(=O)Nc1nc(N)c2c(ccc3nccc32)[nH]1`, the TGI falls from 7.22 µM to 2.56 µM (2.8-fold).

First: CCn1c(-c2nonc2N)nc2c(C#CC(C)(C)O)nc(OC[C@@H](N)c3ccccc3)cc21
Second: COC[C@H]1Cn2cc(-c3nc(Nc4ccnn4C)ncc3C)nc2C(=O)N1Cc1ccc(F)c(F)c1
The TGI of the first is lower: 9.42 µM for the first, over 100 µM for the second.

`Cn1ccc2c3c(Oc4ccc(NC(N)=O)cc4)ccnc3ccc21` and `O=C(Nc1ccccc1-c1nn(C(=S)Nc2ccccc2)c(=S)n(C(=S)Nc2ccccc2)c1=O)C(F)(F)F` cannot be ordered by TGI: over 100 µM for the first, over 95.6 µM for the second.

Compared with `CC(=O)OCCOCNC(=S)N/N=C(\C)c1cnccn1`, `Nc1n[nH]c2cc(F)c([C@@H]3Nc4ccc5[nH]ncc5c4[C@H]4C5CCC(C5)[C@@H]34)cc12` (stereo partly specified) is 3.3-fold lower in TGI: 86.3 µM for the first, 26.1 µM for the second.

`O=c1c(-c2ccccc2)c2oc(c1-c1ccccc1)CSCc1cccc(c1)CSC2` gave a TGI of over 100 µM.

system: EKVX NSCLC; experiment: inhibition of tumour cell growth, NCI panel, 48 h

`COc1cc(/C(C#N)=C/c2nc3c(N4CCOCC4)nc(Cl)nc3n2C)cc(OC)c1OC` and `COC[C@H]1Cn2cc(-c3nc(Nc4ccnn4C)ncc3C)nc2C(=O)N1Cc1ccc(F)c(F)c1` cannot be ordered by TGI: over 69.9 µM for the first, over 100 µM for the second.

Compared with `Cc1nnc(NC(=O)c2nc(S(=O)(=O)Cc3ccc(F)cc3)ncc2Cl)s1`, `Cn1ccc2c3c(Oc4ccc(NC(N)=O)cc4)ccnc3ccc21` is higher in TGI: 24.3 µM for the first, over 100 µM for the second.

Compared with `CC(C)[C@@H]1C=C2CC[C@H]3[C@](C)(CN)CCC[C@]3(C)[C@H]2CC1`, `Nc1n[nH]c2cc(F)c([C@@H]3Nc4ccc5[nH]ncc5c4[C@H]4C5CCC(C5)[C@@H]34)cc12` (stereo partly specified) is 2.1-fold higher in TGI: 23.4 µM for the first, 49.4 µM for the second.

Compared with `O=CNc1ccc2c(c1)C(=O)c1ccccc1-2`, `O=C(Nc1ccccc1-c1nn(C(=S)Nc2ccccc2)c(=S)n(C(=S)Nc2ccccc2)c1=O)C(F)(F)F` is 2.3-fold higher in TGI: 43.1 µM for the first, 98.2 µM for the second.

First: O=C(Nc1ccc(Oc2ccc(Nc3nc4ccccc4s3)cc2)cc1)Nc1ccc(Cl)c(C(F)(F)F)c1
Second: CCCOc1cc2ccccc2cc1C(=O)Nc1nc(N)c2c(ccc3nccc32)[nH]1
The TGI of the first is 2.4-fold higher: 5.45 µM for the first, 2.25 µM for the second.

`Nc1ccc(C2=NNC(=O)Cc3cc4c(cc32)OCCO4)cc1Cl` and `O=c1c(-c2ccccc2)c2oc(c1-c1ccccc1)CSCc1cccc(c1)CSC2` cannot be ordered by TGI: over 50 µM for the first, over 100 µM for the second.

Going from `COc1ccc2nc3cc(Cl)ccc3c(NCCNCC(C)O)c2c1` (stereo unspecified) to `CCn1c(-c2nonc2N)nc2c(C#CC(C)(C)O)nc(OC[C@@H](N)c3ccccc3)cc21`, the TGI rises from 10.7 µM to 22.4 µM (2.1-fold).

Compound `CC(=O)OCCOCNC(=S)N/N=C(\C)c1cnccn1` has a TGI of over 100 µM.

Going from `Cc1nnc(NC(=O)c2nc(S(=O)(=O)Cc3ccc(F)cc3)ncc2Cl)s1` to `Cn1ccc2c3c(Oc4ccc(NC(N)=O)cc4)ccnc3ccc21`, the GI50 rises from 6.73 µM to over 100 µM.

Compared with `CC(C)[C@@H]1C=C2CC[C@H]3[C@](C)(CN)CCC[C@]3(C)[C@H]2CC1`, `Nc1n[nH]c2cc(F)c([C@@H]3Nc4ccc5[nH]ncc5c4[C@H]4C5CCC(C5)[C@@H]34)cc12` (stereo partly specified) is 31-fold lower in GI50: 7.32 µM for the first, 0.237 µM for the second.

Going from `O=C(Nc1ccc(Oc2ccc(Nc3nc4ccccc4s3)cc2)cc1)Nc1ccc(Cl)c(C(F)(F)F)c1` to `CCCOc1cc2ccccc2cc1C(=O)Nc1nc(N)c2c(ccc3nccc32)[nH]1`, the GI50 falls from 1.62 µM to 0.398 µM (4.1-fold).

Going from `Nc1ccc(C2=NNC(=O)Cc3cc4c(cc32)OCCO4)cc1Cl` to `COc1ccc2nc3cc(Cl)ccc3c(NCCNCC(C)O)c2c1` (stereo unspecified), the GI50 falls from 12.7 µM to 2.6 µM (4.9-fold).

Compared with `CCn1c(-c2nonc2N)nc2c(C#CC(C)(C)O)nc(OC[C@@H](N)c3ccccc3)cc21`, `COC[C@H]1Cn2cc(-c3nc(Nc4ccnn4C)ncc3C)nc2C(=O)N1Cc1ccc(F)c(F)c1` is 41-fold lower in GI50: 10.4 µM for the first, 0.255 µM for the second.

system: SK-OV-3 ovarian; experiment: inhibition of tumour cell growth, NCI panel, 48 h

Compared with `COc1cc(/C(C#N)=C/c2nc3c(N4CCOCC4)nc(Cl)nc3n2C)cc(OC)c1OC`, `COC[C@H]1Cn2cc(-c3nc(Nc4ccnn4C)ncc3C)nc2C(=O)N1Cc1ccc(F)c(F)c1` is higher in GI50: under 0.01 µM for the first, 35.9 µM for the second.

First: Cc1nnc(NC(=O)c2nc(S(=O)(=O)Cc3ccc(F)cc3)ncc2Cl)s1
Second: Cn1ccc2c3c(Oc4ccc(NC(N)=O)cc4)ccnc3ccc21
The GI50 of the first is lower: 17.9 µM for the first, over 100 µM for the second.

Compared with `CC(C)[C@@H]1C=C2CC[C@H]3[C@](C)(CN)CCC[C@]3(C)[C@H]2CC1`, `Nc1n[nH]c2cc(F)c([C@@H]3Nc4ccc5[nH]ncc5c4[C@H]4C5CCC(C5)[C@@H]34)cc12` (stereo partly specified) is 37-fold lower in GI50: 13.2 µM for the first, 0.359 µM for the second.

Compared with `O=C(Nc1ccc(Oc2ccc(Nc3nc4ccccc4s3)cc2)cc1)Nc1ccc(Cl)c(C(F)(F)F)c1`, `CCCOc1cc2ccccc2cc1C(=O)Nc1nc(N)c2c(ccc3nccc32)[nH]1` is 31-fold lower in GI50: 1.86 µM for the first, 0.0591 µM for the second.

Going from `Nc1ccc(C2=NNC(=O)Cc3cc4c(cc32)OCCO4)cc1Cl` to `COc1ccc2nc3cc(Cl)ccc3c(NCCNCC(C)O)c2c1` (stereo unspecified), the GI50 falls from 8.1 µM to 2.58 µM (3.1-fold).

In the case of `CCn1c(-c2nonc2N)nc2c(C#CC(C)(C)O)nc(OC[C@@H](N)c3ccccc3)cc21`, the GI50 is reported as 4.16 µM.

First: COc1cc(/C(C#N)=C/c2nc3c(N4CCOCC4)nc(Cl)nc3n2C)cc(OC)c1OC
Second: COC[C@H]1Cn2cc(-c3nc(Nc4ccnn4C)ncc3C)nc2C(=O)N1Cc1ccc(F)c(F)c1
The TGI of the first is lower: 7.27 µM for the first, over 100 µM for the second.

Going from `Cc1nnc(NC(=O)c2nc(S(=O)(=O)Cc3ccc(F)cc3)ncc2Cl)s1` to `Cn1ccc2c3c(Oc4ccc(NC(N)=O)cc4)ccnc3ccc21`, the TGI rises from 32 µM to over 100 µM.

First: CC(C)[C@@H]1C=C2CC[C@H]3[C@](C)(CN)CCC[C@]3(C)[C@H]2CC1
Second: Nc1n[nH]c2cc(F)c([C@@H]3Nc4ccc5[nH]ncc5c4[C@H]4C5CCC(C5)[C@@H]34)cc12 (stereo partly specified)
The TGI of the first is lower: 26 µM for the first, over 32.1 µM for the second.

`O=CNc1ccc2c(c1)C(=O)c1ccccc1-2` and `O=C(Nc1ccccc1-c1nn(C(=S)Nc2ccccc2)c(=S)n(C(=S)Nc2ccccc2)c1=O)C(F)(F)F` cannot be ordered by TGI: over 100 µM for the first, over 100 µM for the second.

Compared with `O=C(Nc1ccc(Oc2ccc(Nc3nc4ccccc4s3)cc2)cc1)Nc1ccc(Cl)c(C(F)(F)F)c1`, `CCCOc1cc2ccccc2cc1C(=O)Nc1nc(N)c2c(ccc3nccc32)[nH]1` is 1.9-fold lower in TGI: 4.42 µM for the first, 2.36 µM for the second.

`Nc1ccc(C2=NNC(=O)Cc3cc4c(cc32)OCCO4)cc1Cl` and `O=c1c(-c2ccccc2)c2oc(c1-c1ccccc1)CSCc1cccc(c1)CSC2` cannot be ordered by TGI: over 50 µM for the first, 70.1 µM for the second.

`COc1ccc2nc3cc(Cl)ccc3c(NCCNCC(C)O)c2c1` (stereo unspecified) and `CCn1c(-c2nonc2N)nc2c(C#CC(C)(C)O)nc(OC[C@@H](N)c3ccccc3)cc21` are within 1.5-fold of each other in TGI: 9.75 µM for the first, 9.47 µM for the second.

In the case of `CC(=O)OCCOCNC(=S)N/N=C(\C)c1cnccn1`, the TGI is reported as over 100 µM.
